Data as given in a melting point compilation (Tetko et al.; mined from patent text by program, amines drawn as free bases though some values may be those of a salt).

SMILES	melting point [°C]
COc1ccc(CCNC(=O)Nc2ccccc2CCc2cc(C(C)(C)C)c(O)c(C(C)(C)C)c2)cc1	148 to 149
CC(C)NC(=O)[C@@H]1CCCN1C(=O)[C@H](C)NC(=O)OCc1ccccc1	124 to 126
Cc1cc(Oc2ccc(S(C)(=O)=O)c(S(F)(F)(F)(F)F)c2)c(S(C)(=O)=O)cc1C(=O)NC(=N)N	275
Cc1cc(C(=O)N(C)C)ncc1C(c1c(F)ccc(F)c1F)S(=O)(=O)CCC(F)(F)F (stereo not drawn)	203 to 204
O=C(O)CCC1C2CC3CC(C2)CC1C3 (stereo not drawn)	116
CCCCOc1ccc(S(=O)(=O)C2(C(=O)O)CCN(Cc3ccccc3)CC2)cc1	144
CCN(CC)CCN1C(=O)c2cc(Cl)c(S(N)(=O)=O)cc2C1=O	152 to 154
NC(=O)C(OCc1ccc(Cl)cc1)(C(F)(F)F)C(F)(F)F	94 to 95
CC(=O)N[C@@H](C)COC1CCN(c2nc3ccc(OCC(F)(F)F)cc3s2)CC1	129 to 131
CC(C)(C)c1cc2c(c(C(C)(C)C)c1O)CC1(CCCCC1)S2	128
CC(C)(C)CNc1nc(N2CCCC2)cc(N2CCNCC2)n1	118 to 120
CN(SN(C)C(=O)F)C(=O)F	40 to 41
CC(=O)Nc1ccc(S(=O)(=O)N[C@@H]2COCOC[C@H]2O)cc1 (relative stereo)	161 to 163
CCCCc1nn(C(CC)c2ccccc2)c(=O)n1Cc1ccc(-c2ccccc2-c2nnn[nH]2)cc1 (stereo not drawn)	72 to 75
O=S(=O)(Nc1ncnc(Cl)c1-c1ccc(-c2ccccc2)cc1)c1ccc(Cl)cc1	234 to 235
CN1CCCC1=NC(=S)Nc1ccccc1	142 to 144
COc1ccc(CNC(=O)c2c(C)c([N+](=O)[O-])cc3nc(OC)c(OC)nc23)cc1	187 to 189
O=C(NC(=NCCCCc1cccnc1)NCCCc1c[nH]cn1)c1ccccc1	119 to 120
CC(C)COC1OC(CO)C(O)C(O)C1(O)N(C(=O)N(CCCl)N=O)C1CCCCC1 (stereo not drawn)	87 to 89
Nc1ncnc2c1ncn2Cc1nc2c(Cl)cccc2c(=O)n1-c1ccccc1Cl	273 to 274

More lines, now with the values ahead:

melting point [°C]	SMILES
136 to 137	CCOC(=O)/C=C/c1c(-c2ccc(F)cc2)n(CCF)c(=O)c2ccccc12
130 to 131	O=C1CC(c2ccccc2Cl)Cc2nccc(Cl)c21 (stereo not drawn)
116	C#CCN(c1nc(C)n(-c2ccc(Cl)cc2Cl)n1)c1cc(C)ccc1OC
255 to 257	NCc1ccc(Nc2ncnc3[nH]cc(C(=O)c4ccccc4)c23)cc1
159 to 160	CS(=O)(=O)c1ccc(-n2nc(C(F)(F)F)cc2-c2ccc(-c3ccco3)cc2)cc1C(F)(F)F
98 to 100	COC(=O)COCc1cc2cc(Cl)ccc2n1S(=O)(=O)c1ccccc1
136 to 139	CCCCOc1ccc(C(=O)Nc2ccc3cc(C(C)N4CCCC4)cnc3c2C)cc1 (stereo not drawn)
148 to 150	Cc1cccc(-c2ccc(O)cc2C=O)c1
88 to 95	Cc1noc(NS(=O)(=O)c2ccccc2-c2ccc(-c3ncco3)cc2Cc2ncco2)c1C
183 to 184	Cc1ccc(-c2cccn2-c2ccc(S(N)(=O)=O)cc2)cc1
245 to 247	COc1nc2ccccc2n(-c2ccc(Cl)cc2)c1=O
> 300	Cc1[nH]n(Cc2ccc(C(N)=O)cc2)c2nc(-c3ccncc3)nc(=O)c1-2
114	CC1(C)C2=C(CCC2=O)c2ccccc21
88 to 90	COC(=O)c1ccc(OCCNC(=O)OCc2ccccc2)cc1Cl
175 to 177	COc1ccc2c(c1)C(c1ccccc1)NN=C2Cc1c(Cl)cncc1Cl (stereo not drawn)
174 to 175	CC(NC(=O)Cc1cc(F)cc(F)c1)C(=O)NC1C(=O)N(C)Cc2ccccc21 (stereo not drawn)
126 to 127	CSc1cccc(S(N)(=O)=O)c1
63	COC1(c2cc(F)cc(Sc3ccc(C(=O)C(F)(F)F)cc3)c2)CCOCC1
